{
  "source": "patent US20220062296A1",
  "about": "“COMBINATIONS OF GABAA ALPHA 5 AGONISTS AND SV2A INHIBITORS AND METHODS OF USING IN THE TREATMENT OF COGNITIVE IMPAIRMENT” (AGENEBIO, INC., priority 2020, published 2022)",
  "key": {"[1]": {"test_system": "entorhinal cortex of aMCI subjects", "assay": "fMRI activity in entorhinal cortex (EC) during explicit 3-alternative forced choice task", "format": "in vivo, human", "conditions": "levetiracetam 125 mg twice a day for two weeks", "experimental": "A within-subjects trial of 8 weeks duration, involving 17 amnestic MCI (aMCI) subjects and 17 age-matched controls with a low dose treatment of levetiracetam is conducted. During the course of the study, each aMCI subject receives both drug and placebo treatments separately in two periods of two weeks each, with the order of treatments among different aMCI subjects counterbalanced (see FIG. 4). Age-matched control subjects treated with placebo serve as a further control. Cognitive testing and fMRI imaging data are obtained from the subjects after each two-week period of drug/placebo treatment. Imaging data are obtained through high-resolution methods developed in the Stark laboratory. Data are collected on a Phillips 3 Tesla scanner (Eindhoven, The Netherlands) equipped with an 8-channel SENSE (Sensitivity Encoding) head coil, located at the F.M. Kirby Research Center for Functional Brain Imaging at the Kennedy Krieger Institute (Baltimore, Md.). […] Group data are analyzed using a two-way Analysis of Variance (ANOVA) with trial types and group as fixed factors, and subject as a random factor nested within group. […] The activity of the subject's medial temporal lobe is measured by functional MRI during the subject's participation in an explicit 3-alternative forced choice task, where participants view novel, repeated and similar (“lure”) stimuli. […]"}, "aMCI subjects": {"test_system": "aMCI subjects", "assay": "Neuropsychological tests (Buschke Selective Reminding, Benton Visual Retention, Verbal Paired Associates)", "format": "in vivo, human", "conditions": "levetiracetam 125 mg twice a day for two weeks", "description": "All participants undergo neuropsychological evaluation at the time of assessment for treatment efficacy (Visits 1 and 2), as well as at the Baseline Visit. The evaluation occurs outside of the scanner and includes the Buschke Selective Reminding Test (Buschke and Fuld, 1974) and the Verbal Paired Associates subtest, the Logical Memory subtest, the Visual Reproduction subtest of the Wechsler Memory Scale-Revised (WMS-R) (Wechsler, 1997), and the Benton Visual Retention Test, as these tasks are particularly sensitive to medial temporal lobe function and early memory problems (Marquis et al., 2002 and Masur et al., 1994). Additionally, subjects are asked to complete tests of more general cognitive function such as tests to assess general mental status, executive function, attention and general naming ability. All neuropsychological tests are administered by a trained research assistant during a 60-minute session. As the three neuropsychological assessments in this study occur within a time period of 8 weeks, different versions of the neuropsychological tests are used to minimize test specific practice effects. Breaks are provided to the subject as needed."}, "somatostatin in DG hilus": {"test_system": "somatostatin in DG hilus", "assay": "Somatostatin immunohistochemistry, SOM-immunoreactive neurons in DG hilus", "format": "in vivo, rat", "conditions": "10 mg/kg/day, four weeks, osmotic mini-pumps; AI-LEV vs AI-VEH p<0.01", "description": "Tissue was labeled with anti-SOM antiserum (Santa Cruz Biotechnology; cat. no. SC7819-P) using an established immunoperoxidase protocol and tissue sections were processed concurrently to minimize inter-replication variability (Haberman et al., 2009). The anti-SOM antiserum can detect somatostatin. Briefly, sections were washed in 0.1M phosphate-buffered saline (PBS) to remove cryoprotectant, and endogenous peroxidases were quenched in 0.3% H202 in PBS. After additional PBS washes, sections were blocked in 5% normal horse serum in PBS with 0.3% Triton. Sections were then incubated with primary antibody at a dilution of 1:1600 in PBS containing 0.15% Triton and 3% normal serum for 72 hours at 4° C. with agitation. […] The secondary antibody was detected with avidin-biotin complex (ABC Elite; Vector Laboratories Inc., Burlingame, Calif.) and the avidin-biotin complex was visualized with nickel-enhanced diaminobenzadine (Vector Laboratories Inc., Burlingame, Calif.). […]\nInterneuron quantification was performed using a Zeiss Axioplan 2 microscope equipped with a motorized stage. […] Neuron counts were analyzed as the total number of hilar interneurons per hippocampal section for each rat."}, "[2]": {"conditions": "cited from earlier work"}, "[3]": {"test_system": "reelin in Entorhinal Cortex (EC2)", "assay": "Reelin mRNA in situ hybridization in entorhinal cortex (EC2)", "conditions": "10 mg/kg/day for 28 days; vs AI-VEH p=0.033"}},
  "data": [
    {"smiles": "CC[C@@H](C(N)=O)N1CCCC1=O", "note": "[levetiracetam, (2S)-2-(2-oxopyrrolidin-1-yl)butanamide]", "values": [
      {"measurement": "EC activity during memory judgments", "setting": "[1]", "result": "increases EC activity"},
      {"measurement": "Benton Visual Retention Test performance", "setting": "aMCI subjects", "result": "fail to rescue performance"},
      {"measurement": "Buschke Selective Reminding Test-Delayed Recall performance", "setting": "aMCI subjects", "result": "fail to rescue performance"},
      {"measurement": "Verbal Paired Associates Test-Delayed Recall performance", "setting": "aMCI subjects", "result": "fail to rescue performance"},
      {"measurement": "Verbal Paired Associates Test-Recognition performance", "setting": "aMCI subjects", "result": "fail to rescue performance"},
      {"measurement": "levels of somatostatin in DG hilus (SOM-immunoreactive hilar neurons)", "setting": "somatostatin in DG hilus", "result": "restores the levels of somatostatin"},
      {"measurement": "plasma half-life in elderly", "setting": "[2]; expected, due to decreased renal function", "result": "9 to 10", "unit": "h"},
      {"measurement": "time to steady state", "setting": "[2]; multiple twice-daily dosing", "result": 2, "unit": "days"},
      {"measurement": "plasma half-life", "setting": "[2]; oral administration", "result": "approximately 7±1 hour"},
      {"measurement": "absorption after oral administration", "setting": "[2]; oral", "result": "rapidly and almost completely absorbed"},
      {"measurement": "effect of food on bioavailability", "setting": "[2]; oral", "result": "not affected by food"},
      {"measurement": "time of peak plasma concentrations following oral administration", "setting": "[2]; oral", "result": "about 1 hour"},
      {"measurement": "reelin mRNA expression in the lateral entorhinal cortex", "setting": "[3]", "result": "significantly increased the expression of reelin"}
    ]}
  ]
}
